Experimental data taken from patent US20070128217A1 (priority 2003, published 2007).

Columns and labels:
[1] = tested on: antibodies in sera from SARS patients (sera 1a, 1b, 2, 6, 37, 62, London, SARS-yellow, SARS-green); format: binding, human; design: Binding of serum 6 to linear peptides of protein X1 of SARS-CoV Urbani / Binding of serum 37 to linear peptides of protein X1 of SARS-CoV Urbani / Binding of serum 6 to looped/cyclic peptide (PEPSCAN-ELISA) / Binding of serum 37 to looped/cyclic peptide (PEPSCAN-ELISA) / Binding of serum 37 to looped/cyclic peptides of protein X1 of SARS-CoV Urbani / Binding of serum 6 to linear peptides of protein X2 / Binding of serum 37 to linear peptides of protein X2 / Binding of serum 37 to looped/cyclic peptides of protein X2 of SARS-CoV Urbani / Binding of serum 6 to linear peptides of protein M of SARS-CoV Urbani / Binding of serum 37 to linear peptides of protein M of SARS-CoV Urbani / Binding of serum 6 to looped/cyclic peptides of protein M of SARS-CoV Urbani / Binding of serum 37 to looped/cyclic peptides of protein M of SARS-CoV Urbani / Binding of serum 6 to linear peptides of protein X3 of SARS-CoV Urbani / Binding of serum 37 to linear peptides of protein X3 of SARS-CoV Urbani / Binding of serum 37 to looped/cyclic peptides of protein X3 of SARS-CoV Urbani / Binding of serum 6 to linear peptides of protein X4 of SARS-CoV Urbani / Binding of serum 37 to linear peptides of protein X4 of SARS-CoV Urbani / Binding of serum 37 to looped/cyclic peptides of protein X4 of SARS-CoV Urbani / Binding of serum 6 to linear peptides of protein X5 of SARS-CoV Urbani / Binding of serum 37 to linear peptides of protein X5 of SARS-CoV Urbani / Binding of serum 37 to looped/cyclic peptides of protein X5 of SARS-CoV Urbani / Binding of serum 6 to linear peptides of protein N of SARS-CoV Urbani / Binding of serum 37 to linear peptides of protein N of SARS-CoV Urbani / Binding of serum 6 to linear peptide (PEPSCAN-ELISA) / Binding of serum 1a to looped/cyclic peptides of protein N of SARS-CoV Urbani / Binding of serum 1b to looped/cyclic peptides of protein N of SARS-CoV Urbani / Binding of serum 2 to looped/cyclic peptides of protein N of SARS-CoV Urbani / Binding of serum 6 to looped/cyclic peptides of protein N of SARS-CoV Urbani / Binding of serum 37 to looped/cyclic peptides of protein N of SARS-CoV Urbani / Binding of serum 62 to looped/cyclic peptides of protein N of SARS-CoV Urbani / Binding of serum London to looped/cyclic peptides of protein N of SARS-CoV Urbani / Binding of serum SARS-green to looped/cyclic peptides of protein N of SARS-CoV Urbani: unit not given here
[2] = tested on: control sera (pooled serum of ten healthy LUMC hospital workers; commercial negative donor pooled serum from the Dutch bloodbank); format: binding, human; design: Binding of Control serum LUMC to linear peptides / Binding of Control serum Blood-bank to linear peptides / Binding of Control serum LUMC to looped peptides / Binding of Control Serum Blood-Bank to Looped peptides / Binding of Control serum LUMC to linear peptides of the protein M of SARS-CoV Urbani / Binding of Control serum Blood-bank to linear peptides of the protein M of SARS-CoV Urbani / Binding of Control serum LUMC to looped peptides of the protein M of SARS-CoV Urbani / Binding of Control Serum Blood-Bank to Looped peptides of the protein M of SARS-CoV Urbani: unit not given here
[3] = tested on: rabbit serum obtained by immunizing a rabbit with the SARS-CoV strain Frankfurt 1; format: binding; design: Binding of a rabbit serum to linear peptides / Binding of a rabbit serum to looped peptides / Rabbit serum linear peptides / Rabbit serum looped peptides / Binding of a rabbit serum to linear peptides of protein N of SARS-CoV Urbani (Rabbit serum linear peptides) / Binding of a rabbit serum to looped/cyclic peptides of protein N of SARS-CoV Urbani (Rabbit serum looped peptides): unit not given here

SLPFGWLVIGVAFLA
Binding of serum 1a to linear peptides of protein X1 of SARS-CoV Urbani [1]: 0.7
Binding of serum 1a to looped/cyclic peptide (PEPSCAN-ELISA) [1]: 0.3
Binding of serum 1b to linear peptides of protein X1 of SARS-CoV Urbani [1]: 0.6
Binding of serum 1b to looped/cyclic peptide (PEPSCAN-ELISA) [1]: 0.2
Binding of serum 2 to linear peptides of protein X1 of SARS-CoV Urbani [1]: 0.5
Binding of serum 2 to looped/cyclic peptide (PEPSCAN-ELISA) [1]: 0.2
Binding of serum 6 to linear peptides of protein X1 of SARS-CoV Urbani [1]: 0.4
Binding of serum 6 to looped/cyclic peptide (PEPSCAN-ELISA) [1]: 0.0
Binding of serum 37 to linear peptides of protein X1 of SARS-CoV Urbani [1]: 0.6
Binding of serum 37 to looped/cyclic peptide (PEPSCAN-ELISA) [1]: 0.3
Binding of serum 62 to linear peptides of protein X1 of SARS-CoV Urbani [1]: 0.5
Binding of serum 62 to looped/cyclic peptide (PEPSCAN-ELISA) [1]: 0.3
Binding of serum London to linear peptides of protein X1 of SARS-CoV Urbani [1]: 0.2
Binding of serum London to looped/cyclic peptide (PEPSCAN-ELISA) [1]: 0.2
Binding of serum SARS-green to linear peptides of protein X1 of SARS-CoV Urbani [1]: 0.2
Binding of serum SARS-green to looped/cyclic peptide (PEPSCAN-ELISA) [1]: 0.3
Binding of serum SARS-yellow to linear peptides of protein X1 of SARS-CoV Urbani [1]: 0.4
Binding of serum SARS-yellow to looped/cyclic peptide (PEPSCAN-ELISA) [1]: 0.2
Binding of Control Serum Blood-Bank to Looped peptides [2]: 0.4
Binding of Control serum Blood-bank to linear peptides [2]: 0.6
Binding of Control serum LUMC to linear peptides [2]: 0.6
Binding of Control serum LUMC to looped peptides [2]: 0.3
Binding of a rabbit serum to linear peptides [3]: 0.4
Binding of a rabbit serum to looped peptides [3]: 0.1

VYRINWVTGGIAIAM
Binding of serum 1a to linear peptides of protein M of SARS-CoV Urbani [1]: 0.9
Binding of serum 1a to looped/cyclic peptides of protein M of SARS-CoV Urbani [1]: 0.7
Binding of serum 1b to linear peptides of protein M of SARS-CoV Urbani [1]: 0.8
Binding of serum 1b to looped/cyclic peptides of protein M of SARS-CoV Urbani [1]: 0.4
Binding of serum 2 to linear peptides of protein M of SARS-CoV Urbani [1]: 0.8
Binding of serum 2 to looped/cyclic peptides of protein M of SARS-CoV Urbani [1]: 0.6
Binding of serum 6 to linear peptides of protein M of SARS-CoV Urbani [1]: 1.0
Binding of serum 6 to looped/cyclic peptides of protein M of SARS-CoV Urbani [1]: 0.5
Binding of serum 37 to linear peptides of protein M of SARS-CoV Urbani [1]: 0.6
Binding of serum 37 to looped/cyclic peptides of protein M of SARS-CoV Urbani [1]: 0.7
Binding of serum 62 to linear peptides of protein M of SARS-CoV Urbani [1]: 0.6
Binding of serum 62 to looped/cyclic peptides of protein M of SARS-CoV Urbani [1]: 1.1
Binding of serum London to linear peptides of protein M of SARS-CoV Urbani [1]: 0.6
Binding of serum London to looped/cyclic peptides of protein M of SARS-CoV Urbani [1]: 0.2
Binding of serum SARS-green to linear peptides of protein M of SARS-CoV Urbani [1]: 0.7
Binding of serum SARS-green to looped/cyclic peptides of protein M of SARS-CoV Urbani [1]: 0.3
Binding of serum SARS-yellow to linear peptides of protein M of SARS-CoV Urbani [1]: 0.3
Binding of serum SARS-yellow to looped/cyclic peptides of protein M of SARS-CoV Urbani [1]: 0.8
Binding of Control Serum Blood-Bank to Looped peptides of the protein M of SARS-CoV Urbani [2]: 0.7
Binding of Control serum Blood-bank to linear peptides of the protein M of SARS-CoV Urbani [2]: 0.7
Binding of Control serum LUMC to linear peptides of the protein M of SARS-CoV Urbani [2]: 1.0
Binding of Control serum LUMC to looped peptides of the protein M of SARS-CoV Urbani [2]: 0.8
Rabbit serum linear peptides [3]: 0.3
Rabbit serum looped peptides [3]: 0.4

FLYLYALIYFLQCIN
Binding of serum 1a to linear peptides of protein X1 of SARS-CoV Urbani [1]: 0.7
Binding of serum 1a to looped/cyclic peptide (PEPSCAN-ELISA) [1]: 0.4
Binding of serum 1b to linear peptides of protein X1 of SARS-CoV Urbani [1]: 0.5
Binding of serum 1b to looped/cyclic peptide (PEPSCAN-ELISA) [1]: 0.3
Binding of serum 2 to linear peptides of protein X1 of SARS-CoV Urbani [1]: 0.5
Binding of serum 2 to looped/cyclic peptide (PEPSCAN-ELISA) [1]: 0.3
Binding of serum 6 to linear peptides of protein X1 of SARS-CoV Urbani [1]: 0.4
Binding of serum 6 to looped/cyclic peptide (PEPSCAN-ELISA) [1]: 0.2
Binding of serum 37 to linear peptides of protein X1 of SARS-CoV Urbani [1]: 0.5
Binding of serum 37 to looped/cyclic peptide (PEPSCAN-ELISA) [1]: 0.4
Binding of serum 62 to linear peptides of protein X1 of SARS-CoV Urbani [1]: 0.6
Binding of serum 62 to looped/cyclic peptide (PEPSCAN-ELISA) [1]: 0.4
Binding of serum London to linear peptides of protein X1 of SARS-CoV Urbani [1]: 0.2
Binding of serum London to looped/cyclic peptide (PEPSCAN-ELISA) [1]: 0.2
Binding of serum SARS-green to linear peptides of protein X1 of SARS-CoV Urbani [1]: 0.2
Binding of serum SARS-green to looped/cyclic peptide (PEPSCAN-ELISA) [1]: 0.2
Binding of serum SARS-yellow to linear peptides of protein X1 of SARS-CoV Urbani [1]: 0.5
Binding of serum SARS-yellow to looped/cyclic peptide (PEPSCAN-ELISA) [1]: 0.3
Binding of Control Serum Blood-Bank to Looped peptides [2]: 0.5
Binding of Control serum Blood-bank to linear peptides [2]: 0.5
Binding of Control serum LUMC to linear peptides [2]: 0.5
Binding of Control serum LUMC to looped peptides [2]: 0.4
Binding of a rabbit serum to linear peptides [3]: 0.1
Binding of a rabbit serum to looped peptides [3]: 0.4

PKLFIRQEEVQQELY
Binding of serum 1a to linear peptides of protein X4 of SARS-CoV Urbani [1]: 0.7
Binding of serum 1a to looped/cyclic peptides of protein X4 of SARS-CoV Urbani [1]: 0.8
Binding of serum 1b to linear peptides of protein X4 of SARS-CoV Urbani [1]: 0.6
Binding of serum 1b to looped/cyclic peptides of protein X4 of SARS-CoV Urbani [1]: 0.6
Binding of serum 2 to linear peptides of protein X4 of SARS-CoV Urbani [1]: 0.4
Binding of serum 2 to looped/cyclic peptides of protein X4 of SARS-CoV Urbani [1]: 0.5
Binding of serum 6 to linear peptides of protein X4 of SARS-CoV Urbani [1]: 0.5
Binding of serum 6 to looped/cyclic peptides of protein X4 of SARS-CoV Urbani [1]: 0.5
Binding of serum 37 to linear peptides of protein X4 of SARS-CoV Urbani [1]: 0.8
Binding of serum 37 to looped/cyclic peptides of protein X4 of SARS-CoV Urbani [1]: 0.7
Binding of serum 62 to linear peptides of protein X4 of SARS-CoV Urbani [1]: 0.8
Binding of serum 62 to looped/cyclic peptides of protein X4 of SARS-CoV Urbani [1]: 0.6
Binding of serum London to linear peptides of protein X4 of SARS-CoV Urbani [1]: 0.8
Binding of serum London to looped/cyclic peptides of protein X4 of SARS-CoV Urbani [1]: 0.4
Binding of serum SARS-green to linear peptides of protein X4 of SARS-CoV Urbani [1]: 0.7
Binding of serum SARS-green to looped/cyclic peptides of protein X4 of SARS-CoV Urbani [1]: 0.5
Binding of serum SARS-yellow to linear peptides of protein X4 of SARS-CoV Urbani [1]: 0.8
Binding of serum SARS-yellow to looped/cyclic peptides of protein X4 of SARS-CoV Urbani [1]: 0.4
Binding of Control Serum Blood-Bank to Looped peptides [2]: 0.6
Binding of Control serum Blood-bank to linear peptides [2]: 0.7
Binding of Control serum LUMC to linear peptides [2]: 0.5
Binding of Control serum LUMC to looped peptides [2]: 0.7
Rabbit serum linear peptides [3]: 0.4
Rabbit serum looped peptides [3]: 0.4

LYKGFQFICNLLLLF
Binding of serum 1a to linear peptides of protein X1 of SARS-CoV Urbani [1]: 0.6
Binding of serum 1a to looped/cyclic peptide (PEPSCAN-ELISA) [1]: 0.5
Binding of serum 1b to linear peptides of protein X1 of SARS-CoV Urbani [1]: 0.5
Binding of serum 1b to looped/cyclic peptide (PEPSCAN-ELISA) [1]: 0.3
Binding of serum 2 to linear peptides of protein X1 of SARS-CoV Urbani [1]: 0.5
Binding of serum 2 to looped/cyclic peptide (PEPSCAN-ELISA) [1]: 0.3
Binding of serum 6 to linear peptides of protein X1 of SARS-CoV Urbani [1]: 0.4
Binding of serum 6 to looped/cyclic peptide (PEPSCAN-ELISA) [1]: 1.5
Binding of serum 37 to linear peptides of protein X1 of SARS-CoV Urbani [1]: 0.5
Binding of serum 37 to looped/cyclic peptide (PEPSCAN-ELISA) [1]: 0.4
Binding of serum 62 to linear peptides of protein X1 of SARS-CoV Urbani [1]: 0.4
Binding of serum 62 to looped/cyclic peptide (PEPSCAN-ELISA) [1]: 0.5
Binding of serum London to linear peptides of protein X1 of SARS-CoV Urbani [1]: 0.2
Binding of serum London to looped/cyclic peptide (PEPSCAN-ELISA) [1]: 1.7
Binding of serum SARS-green to linear peptides of protein X1 of SARS-CoV Urbani [1]: 0.2
Binding of serum SARS-green to looped/cyclic peptide (PEPSCAN-ELISA) [1]: 0.2
Binding of serum SARS-yellow to linear peptides of protein X1 of SARS-CoV Urbani [1]: 0.4
Binding of serum SARS-yellow to looped/cyclic peptide (PEPSCAN-ELISA) [1]: 0.3
Binding of Control Serum Blood-Bank to Looped peptides [2]: 0.4
Binding of Control serum Blood-bank to linear peptides [2]: 0.5
Binding of Control serum LUMC to linear peptides [2]: 0.5
Binding of Control serum LUMC to looped peptides [2]: 0.6
Binding of a rabbit serum to linear peptides [3]: 0.2
Binding of a rabbit serum to looped peptides [3]: 0.3
